Entries after “also recorded” stand apart in the source; their conditions may differ.

This note sets out measurements from patent publication US8846873B2, “Antibodies directed to GPNMB and uses thereof” (Celldex Therapeutics, Inc., priority 2004, dated 2014).

The target of assay [1] is T1, purified recombinant GPNMB (Homo sapiens, UniProt Q14956).
T1 construct: made in house; host or cells: HEK 293
T1 sequence (Q14956 23-492): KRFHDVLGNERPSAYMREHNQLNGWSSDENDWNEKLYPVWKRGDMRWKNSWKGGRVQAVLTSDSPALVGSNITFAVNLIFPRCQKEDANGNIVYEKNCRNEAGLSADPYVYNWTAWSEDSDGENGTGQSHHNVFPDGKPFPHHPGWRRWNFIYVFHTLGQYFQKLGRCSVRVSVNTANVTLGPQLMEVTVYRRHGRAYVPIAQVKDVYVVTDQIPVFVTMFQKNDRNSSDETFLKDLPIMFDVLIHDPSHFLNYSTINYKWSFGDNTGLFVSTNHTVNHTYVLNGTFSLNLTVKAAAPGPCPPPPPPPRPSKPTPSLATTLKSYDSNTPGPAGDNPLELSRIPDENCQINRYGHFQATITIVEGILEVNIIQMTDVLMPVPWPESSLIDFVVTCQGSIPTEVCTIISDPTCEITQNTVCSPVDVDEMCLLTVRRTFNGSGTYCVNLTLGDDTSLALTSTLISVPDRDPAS
In words: ELISA of CR011 engineered antibodies on recombinant GPNMB. The format is binding. The following applies: anti-FLAG-HRP detection. The method, then:
Plates were then blocked and washed. Various dilutions of the CR011 engineered antibodies were added into the wells. Plates were incubated for 1 h and washed. HRP-conjugated anti-FLAG M2 mAb (Sigma, St. Louis, Mo.) was added into the wells for 1 h, washed and the reaction developed with the TMB substrate reagent as described by the manufacturer (Pharmingen, San Jose, Calif.).
Plates were coated with human GPNMB protein tagged with His and V5. […] Binding of the recombinant mAbs (both monomer and dimer) was detected using anti-FLAG-HRP conjugated mAb M2 (Sigma).
(In an ELISA, binding on a coated surface is turned into a signal by an enzyme label.)

The next assay relates to human T cells (CD3). In words: Flow cytometry of CR011 engineered antibodies. It counts as binding. The conditions noted are these: 5 μg/sample/100 μl. The text has this:
(§1) (Jackson ImmunoResearch, West Grove, Pa.) Ten thousand events were collected and analyzed on a FACSCalibur instrument (Becton Dickinson, Mountain View, Calif.).
(§2) To verify binding of the bi-scFv to human CD3 molecules, we used purified human T cells. […] Control anti-CD3 mAb bound to T cells, and control anti-GPNMB mAb bound to SK-Mel-5 tumor cells.
In general terms: A flow cytometer gives signals particle by particle.

A further assay concerns SK-Mel-5 cells. Briefly: Flow cytometry of CR011 engineered antibodies. The format is binding, human. The following applies: 5 μg/sample/100 μl.
Excerpt: as §1, §2

The subject of another assay is SK-Mel-5 tumor cells. Briefly: T lymphocyte redirected cytotoxicity (PKH2 / propidium iodine flow cytometry). The conditions noted are these: purified T cells cultured O/N with tumor cells. It counts as cell-based, human. As to the method:
Tumor cells were labeled with PKH2 green fluorescent linker kit (Sigma) and washed. Purified T cells were cultured O/N with PKH2-labeled tumor cells in the presence or absence of purified bi-scFv. Death of GPNMB positive tumor cells was measured by propidium iodine (PI) incorporation.

Turning to “CR011 scFv: CR011 single chain antibody VL-L4-VH Flag; SEQ ID NO: 355”, in assay [1], the “binding to recombinant GPNMB protein” value is “bound to the GPNMB target; also recorded: bind to the recombinant GPNMB protein”. In addition, the “binding to T cells” value in the assay with human T cells (CD3) was “did not bind CD3 positive T cells”. For the same substance, the “binding to SK-Mel-5 cells” value in the assay with SK-Mel-5 cells is “present at a low level”. Moreover, in the assay with SK-Mel-5 tumor cells, the “killing of SK-Mel-5 tumor cells by T lymphocytes” value is “did not increase killing”.
